In ChEMBL document CHEMBL1136297, “Synthesis and pharmacological evaluation of (Z)-9-(heteroarylmethylene)-7-azatricyclo[4.3.1.0(3,7)]decanes: thiophene analogues as potent norepinephrine transporter inhibitors” (Bioorg Med Chem Lett, 2003):

Experiments:
[1] = target: Sodium-dependent dopamine transporter (Rattus norvegicus, UniProt P23977); experiment: Ability to inhibit reuptake of dopamine ([3H]DA) at dopamine transporter of rat striatum; assay type: tissue-based
[2] = target: Norepinephrine transporter (Rattus norvegicus, UniProt Q9WTR4); experiment: Ability to inhibit reuptake of norepinephrine ([3H]NE) at norepinephrine transporter of rat parietal/occipital region
[3] = target: Sodium-dependent serotonin transporter (Rattus norvegicus, UniProt P31652); experiment: Ability to inhibit reuptake of serotonin ([3H]5-HT) at serotonin transporter of rat midbrian
[4] = Inhibition of reuptake of norepinephrine compared to dopamine.; assay type: functional
[5] = Inhibition of reuptake of norepinephrine compared to serotonin.; assay type: functional
[6] = Inhibition of reuptake of serotonin compared to dopamine.; assay type: functional
[7] = Ratio of inhibitory activity against reuptake of norepinephrine ([3H]-NE) to that of serotonin ([3H]-5-HT)[…]; assay type: functional

Chain of Sodium-dependent serotonin transporter (P31652 whole entry): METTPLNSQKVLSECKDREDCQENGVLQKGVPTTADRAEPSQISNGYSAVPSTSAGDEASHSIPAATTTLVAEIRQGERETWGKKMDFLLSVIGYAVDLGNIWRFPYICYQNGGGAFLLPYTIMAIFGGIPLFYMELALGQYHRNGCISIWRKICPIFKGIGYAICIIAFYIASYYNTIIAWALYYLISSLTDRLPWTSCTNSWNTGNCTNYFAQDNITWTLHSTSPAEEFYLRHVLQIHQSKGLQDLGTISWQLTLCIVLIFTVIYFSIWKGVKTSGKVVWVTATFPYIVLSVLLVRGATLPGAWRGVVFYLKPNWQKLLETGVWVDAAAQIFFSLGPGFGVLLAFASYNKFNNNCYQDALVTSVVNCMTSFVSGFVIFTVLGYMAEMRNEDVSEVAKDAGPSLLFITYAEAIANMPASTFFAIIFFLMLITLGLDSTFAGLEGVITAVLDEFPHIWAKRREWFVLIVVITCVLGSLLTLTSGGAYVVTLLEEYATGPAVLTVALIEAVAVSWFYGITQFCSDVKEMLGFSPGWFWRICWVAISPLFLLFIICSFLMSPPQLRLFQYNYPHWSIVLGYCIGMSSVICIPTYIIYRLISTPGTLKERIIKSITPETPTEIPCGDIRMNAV
Chain of Sodium-dependent dopamine transporter (P23977 whole entry): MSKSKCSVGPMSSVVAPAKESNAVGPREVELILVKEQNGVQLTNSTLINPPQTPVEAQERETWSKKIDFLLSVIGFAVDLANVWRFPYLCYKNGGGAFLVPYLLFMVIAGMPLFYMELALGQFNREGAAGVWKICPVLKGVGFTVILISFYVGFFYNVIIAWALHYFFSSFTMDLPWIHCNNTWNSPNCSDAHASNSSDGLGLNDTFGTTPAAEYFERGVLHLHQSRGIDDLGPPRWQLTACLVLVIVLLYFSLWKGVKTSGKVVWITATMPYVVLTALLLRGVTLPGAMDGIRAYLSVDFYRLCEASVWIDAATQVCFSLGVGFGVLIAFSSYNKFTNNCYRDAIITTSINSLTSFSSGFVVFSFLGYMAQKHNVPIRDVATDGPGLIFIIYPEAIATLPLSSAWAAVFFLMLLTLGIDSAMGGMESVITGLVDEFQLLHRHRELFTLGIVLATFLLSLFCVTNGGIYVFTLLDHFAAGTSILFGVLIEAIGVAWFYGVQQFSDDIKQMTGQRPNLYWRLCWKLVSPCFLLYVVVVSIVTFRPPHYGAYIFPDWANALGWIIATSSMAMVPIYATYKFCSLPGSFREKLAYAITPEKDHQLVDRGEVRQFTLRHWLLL
Chain of Norepinephrine transporter (Q9WTR4 whole entry): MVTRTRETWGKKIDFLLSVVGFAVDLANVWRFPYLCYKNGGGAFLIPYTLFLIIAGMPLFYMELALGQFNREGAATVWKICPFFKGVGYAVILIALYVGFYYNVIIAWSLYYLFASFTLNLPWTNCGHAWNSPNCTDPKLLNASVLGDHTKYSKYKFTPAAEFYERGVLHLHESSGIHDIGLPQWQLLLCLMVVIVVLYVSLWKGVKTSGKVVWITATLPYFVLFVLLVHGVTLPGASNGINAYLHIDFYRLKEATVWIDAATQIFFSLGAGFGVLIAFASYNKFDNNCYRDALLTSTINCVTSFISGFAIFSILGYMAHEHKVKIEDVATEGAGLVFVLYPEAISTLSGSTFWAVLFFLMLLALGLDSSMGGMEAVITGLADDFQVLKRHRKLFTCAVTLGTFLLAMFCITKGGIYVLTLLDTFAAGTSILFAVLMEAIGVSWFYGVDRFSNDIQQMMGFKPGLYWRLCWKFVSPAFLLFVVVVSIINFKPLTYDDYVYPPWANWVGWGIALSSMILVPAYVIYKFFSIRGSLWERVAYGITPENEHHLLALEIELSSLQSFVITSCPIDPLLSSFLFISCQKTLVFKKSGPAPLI

| Structure (SMILES) | Ki [1] [nM] | Ki [2] [nM] | Ki [3] [nM] | Ratio [4] | Ratio [5] | Ratio [6] | Ratio [7] |
| --- | --- | --- | --- | --- | --- | --- | --- |
| CCCCc1ccc(/C=C2\CN3C4CCC3C(C(=O)OC)C2C4)s1 (stereo unspecified) | 4700 | 364 | 665 | 0.08 | 0.55 | 0.14 |  |
| CCCc1ccc(/C=C2\CN3C4CCC3C(C(=O)OC)C2C4)s1 (stereo unspecified) | 1600 | 624 | 269 | 0.39 | 2.32 | 0.17 |  |
| COC(=O)C1C2CC3CCC1N3C/C2=C\c1cccnc1 (stereo unspecified) | > 10000 | 12700 | 4580 |  |  |  | 2.77 |
| CCc1ccc(/C=C2\CN3C4CCC3C(C(=O)OC)C2C4)s1 (stereo unspecified) | > 10000 | 2130 | 346 |  |  |  | 6.16 |
| COC(=O)C1C2CC3CCC1N3C/C2=C\c1ccc(-c2ccc(Cl)s2)s1 (stereo unspecified) | 242 | 58 | 93 | 0.24 | 0.62 | 0.38 |  |
| COC(=O)C1C2CC3CCC1N3C/C2=C\c1ccsc1 (stereo unspecified) | 485 | 33 | 3140 | 0.07 | 0.01 | 6.47 |  |
| COC(=O)C1C2CC3CCC1N3C/C2=C\c1nccs1 (stereo unspecified) | 5090 | 855 | > 10000 |  |  |  | 0.17 |
| COC(=O)C1C2CC3CCC1N3C/C2=C\c1cccc(OC)n1 (stereo unspecified) | 14000 | 308 | 477 | 0.02 | 0.65 | 0.03 |  |
| COC(=O)C1C2CC3CCC1N3C/C2=C\c1ccc(Br)s1 (stereo unspecified) | 147 | 20 | 36 | 0.14 | 0.57 | 0.24 |  |
| COC(=O)C1C2CC3CCC1N3C/C2=C\c1cnc(OC)nc1OC (stereo unspecified) | > 10000 | 9450 | 5140 |  |  |  | 1.84 |
| COC(=O)C1C2CC3CCC1N3C/C2=C\c1cccs1 (stereo unspecified) |  |  |  | 0.1 | 0.01 | 7.63 |  |
| COC(=O)C1C2CC3CCC1N3C/C2=C\c1ccc(Cl)nc1 (stereo unspecified) | > 10000 | 6510 | 810 |  |  |  | 8.03 |
| COC(=O)C1C2CC3CCC1N3C/C2=C\c1ccc(-c2ccc(SC)cc2)s1 (stereo unspecified) | 1650 | 273 | 3320 | 0.16 | 0.08 | 2.01 |  |
| COC(=O)C1C2CC3CCC1N3C/C2=C\c1ccc(-c2ccccc2)s1 (stereo unspecified) | 179 | 13.5 | 71 | 0.08 | 0.19 | 0.4 |  |
| COC(=O)C1C2CC3CCC1N3C/C2=C\c1cnccn1 (stereo unspecified) | 6570 | 1930 | 7140 | 0.29 | 0.27 | 1.09 |  |
| COC(=O)C1C2CC3CCC1N3C/C2=C\c1ccc(OC)s1 (stereo unspecified) | > 10000 | 2250 | 544 |  |  |  | 4.12 |
| COC(=O)C1C2CC3CCC1N3C/C2=C\c1ccc(I)s1 (stereo unspecified) |  |  |  | 0.01 | 0.17 | 0.08 |  |
| COC(=O)C1C2CC3CCC1N3C/C2=C\c1ccc(-c2cccs2)s1 (stereo unspecified) | 298 | 98 | 48 | 0.33 | 2.04 | 0.16 |  |
| COC(=O)C1C2CC3CCC1N3C/C2=C\c1ccc(Cl)s1 (stereo unspecified) | 130 | 9.7 | 53 | 0.07 | 0.18 | 0.41 |  |
| COC(=O)C1C2CC3CCC1N3C/C2=C\c1cc(C)c(Br)s1 (stereo unspecified) | 1280 | 36.8 | 6.75 | 0.03 | 5.45 | 0.01 |  |
| COC(=O)C1C2CC3CCC1N3C/C2=C\c1ccc(C)s1 (stereo unspecified) |  |  |  | 0.01 | 0.03 | 0.44 |  |
| COC(=O)C1C2CC3CCC1N3C/C2=C\c1ccccn1 (stereo unspecified) |  | 115 | 3150 | 0.11 | 0.04 | 2.97 |  |
| COC(=O)C1C2CC3CCC1N3C/C2=C\c1ccc(-c2ccc(OC)cc2)s1 (stereo unspecified) | 371 | 10.3 | 531 | 0.03 | 0.02 | 1.43 |  |
